Data as given in US5591757A, “Dihydropyridine composition” (Yamanouchi Pharmaceutical Co., Ltd., priority 1984, dated 1997).
Counter-ions that a name gives are not always drawn. Like-named read-outs stand apart in the source and are kept apart here.

Experiments:
[1] = test system: mean arterial blood pressure (MBP) and coronary blood flow (Cor. BF); experiment: Hemodynamic effects in anesthetized open-chest dogs (i.v.); type: in vivo, mongrel dogs; details: Canis lupus familiaris, anesthetized dogs; for change in vivo at 1 mg/kg: 1.0 mg/kg iv; for change in vivo at 0.1 mg/kg: 0.1 mg/kg iv; for change in vivo at 0.03 mg/kg: 0.03 mg/kg iv; for change in vivo at 0.3 mg/kg: 0.3 mg/kg iv
Description: Mongrel dogs of either sex were anesthetized with pentobarbital sodium (30 mg/kg iv). The animals were artificially ventilated with room air. The chest was opened at the left 4th intercostal space. Mean arterial blood pressure (MBP), heart rate (HR), left ventricular pressure (LVP), max. dLVP/dt, mean pulmonary arterial blood pressure (MPAP), cardiac output (CO) and coronary blood flow (Cor. BF) were measured. The test compounds were injected into the femoral vein. […] BF from control values induced by intravenous injection of test compounds.

left coronary artery = experiment: Coronary vasodilating effects in dogs (intracoronary); type: in vivo, mongrel dogs; details: for Duration of action of coronary vasodilating effect: intracoronary (ia)
Description: Mongrel dogs of either sex were anesthetized and ventilated as previously described. A thoracotomy was performed at the 4th intercostal space. Following an intravenous injection of heprin (1000 units/kg), blood from the distal end of the cannulated carotid artery was pumped into circumflex branch of the left coronary artery using a servocontrolled peristaltic pump which maintained a constant perfusion pressure of 120 mmHg by means of a pump controller. An electromagnetic flow probe was inserted in the circit to record blood flow through the cannulated coronary artery. The test compounds were administered directly into the rubber tubing connected close to the coronary artery cannula.

Beta-adrenoceptor [2] = target: T1, Beta-adrenoceptor (Rattus norvegicus, UniProt P18090); experiment: Beta-adrenoceptor blocking effect in reserpinized rats (isoproterenol chronotropy); type: in vivo, male Wistar rats; parameters: The rats were anesthetized with pentobarbital sodium; from tissue; host or cells: heart in the living anesthetized male Wistar rat (reserpine-pretreated, vagotomized); details: isoproterenol 0.1 μg/kg iv, cumulative iv doses, read-out: Beta-Blocking ED50 (50% blockade of positive chronotropic response to isoproterenol)
T1 sequence (P18090 whole entry): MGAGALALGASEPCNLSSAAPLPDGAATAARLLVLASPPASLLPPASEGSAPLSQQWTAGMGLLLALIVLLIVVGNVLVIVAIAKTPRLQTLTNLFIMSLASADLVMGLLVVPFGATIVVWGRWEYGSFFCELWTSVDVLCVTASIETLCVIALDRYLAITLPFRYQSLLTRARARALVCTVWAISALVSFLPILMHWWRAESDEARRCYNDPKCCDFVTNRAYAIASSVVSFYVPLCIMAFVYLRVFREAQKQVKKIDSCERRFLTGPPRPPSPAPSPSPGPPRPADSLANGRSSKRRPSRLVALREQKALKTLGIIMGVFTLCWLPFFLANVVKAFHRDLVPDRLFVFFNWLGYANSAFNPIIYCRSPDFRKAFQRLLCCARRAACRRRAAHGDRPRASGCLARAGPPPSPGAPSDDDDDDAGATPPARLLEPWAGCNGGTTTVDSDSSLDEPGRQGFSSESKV
Description: (§1) The rats were pretreated with reserpine (8 mg/kg ip), 18 hr before experiments. […] The heart rate was measured with a cardiotachometer triggered by the QRS of the ECG (lead II) and recorded on a polygraph. After the Control response to isoproterenol at a dose of 0.1 μg/kg iv was obtained, the test compound was injected iv in increasing doses at 20 min intervals.

Beta-adrenoceptor [3] = target: T1, Beta-adrenoceptor; experiment: Intrinsic sympathomimetic activity (ISA) in reserpinized rats; type: in vivo, male Wistar rats; parameters: The rats were anesthetized with pentobarbital sodium; from tissue; host or cells: heart in the living anesthetized male Wistar rat (reserpine-pretreated, vagotomized); details: reserpine-pretreated rats, iv
Description: as §1
In this series of experiments, intrinsic sympathomimetic activity (ISA) was also evaluated.

[4] = read-out: percent change of Cor. BF from control
[5] = read-out: percent change of MBP from control

In the case of `COC(=O)C1=C(C)NC(C)=C(C(=O)OCCCCCCNCC(O)COc2ccccc2)C1c1cccc(C(F)(F)F)c1` (stereo not drawn) [Example 7, 6-(2-hydroxy-3-phenoxypropylamino)hexyl methyl 2,6-dimethyl-4-(m-trifluoromethylphenyl)-1,4-dihydropyridin-3,5-dicarboxylate], the change in vivo at 1 mg/kg [1, 4] is reported as 24%, the change in vivo at 1 mg/kg [1, 5] is reported as -20% and the “ED100 pap (dose for 100% increase of Cor. BF; maximum response to papaverine 300 μg ia = 100%)” value (left coronary artery) is reported as 100 μg ia. For the same compound, the “Duration of action of coronary vasodilating effect” value (“Duration” for short) (left coronary artery) was greater than 60 min, the ED50 (Beta-adrenoceptor [2]) was 1.93 mg/kg and the “ISA (increase in HR)” value (Beta-adrenoceptor [3]) was “-”.

`COC(=O)C1=C(C)NC(C)=C(C(=O)OCCCCNCC(O)COc2ccccc2)C1c1cccc([N+](=O)[O-])c1.Cl` (stereo not drawn) [Example 11, 4-(2-hydroxy-3-phenoxy-propylamino)butyl methyl 2,6-dimethyl-4-(m-nitro-phenyl)-1,4-dihydropyridine-3,5-dicarboxylate hydrochloride] gave a change in vivo at 0.1 mg/kg [1, 4] of 35%, a change in vivo at 0.1 mg/kg [1, 5] of -16% and a change in vivo at 1 mg/kg [1, 4] of 193%. The change in vivo at 1 mg/kg [1, 5] was -41%, the “ED100 pap (dose for 100% increase of Cor. BF; maximum response to papaverine 300 μg ia = 100%)” value (left coronary artery) was 150 μg ia and the “Duration” value (left coronary artery) was 60 min. For the same compound, the ED50 (Beta-adrenoceptor [2]) was 0.64 mg/kg and the “ISA (increase in HR)” value (Beta-adrenoceptor [3]) was “++ (an increase in HR by 20 to 29 beats/min was observed)”.

In the case of `COC(=O)C1=C(C)NC(C)=C(C(=O)OCCCCCCCCCCNCC(O)COc2ccccc2)C1c1cccc([N+](=O)[O-])c1.Cl` (stereo not drawn) [Example 13, 10-(2-hydroxy-3-phenoxy-propylamino)decyl methyl 2,6-dimethyl-4-(m-nitro-phenyl)-1,4-dihydropyridine-3,5-dicarboxylate hydrochloride], the change in vivo at 0.03 mg/kg [1, 4] is reported as 102%, the change in vivo at 0.03 mg/kg [1, 5] is reported as -21% and the “ED100 pap (dose for 100% increase of Cor. BF; maximum response to papaverine 300 μg ia = 100%)” value (left coronary artery) is reported as 12 μg ia. For the same compound, the “Duration” value (left coronary artery) was 60 min, the ED50 (Beta-adrenoceptor [2]) was 0.72 mg/kg and the “ISA (increase in HR)” value (Beta-adrenoceptor [3]) was “+ (an increase in HR by 10 to 19 beats/min was observed)”.

`CCOC(=O)C1=C(C)NC(C)=C(C(=O)OCCCCCCNCC(O)COc2ccccc2)C1c1cccc([N+](=O)[O-])c1` (stereo not drawn) [Example 18, Ethyl 6-(2-hydroxy-3-phenoxy/propylamino)hexyl 2,6-dimethyl-4-(m-nitrophenyl)-1,4-dihydroxypyridine-3,5-dicarboxylate] was tested, and the change in vivo at 0.3 mg/kg [1, 4] was 31%, the change in vivo at 0.3 mg/kg [1, 5] was -22% and the “ED100 pap (dose for 100% increase of Cor. BF; maximum response to papaverine 300 μg ia = 100%)” value (left coronary artery) was 67 μg ia. The “Duration” value (left coronary artery) was greater than 60 min, the ED50 (Beta-adrenoceptor [2]) was 1.25 mg/kg and the “ISA (increase in HR)” value (Beta-adrenoceptor [3]) was “-”.

With `CC1=C(C(=O)OCCCCCCNCC(O)COc2ccccc2)C(c2cccc([N+](=O)[O-])c2)C(C(=O)OC(C)(C)C)=C(C)N1.Cl` (stereo not drawn) [Example 21, tert-butyl 6-(2-hydroxy-3-phenoxypropylamino)hexyl 2,6-dimethyl-4-(m-nitrophenyl)-1,4-dihydropyridine-3,5-dicarboxylate hydrochloride] the change in vivo at 1 mg/kg [1, 4] was 34%, the change in vivo at 1 mg/kg [1, 5] was -28% and the “ED100 pap (dose for 100% increase of Cor. BF; maximum response to papaverine 300 μg ia = 100%)” value (left coronary artery) was 137 μg ia. The “Duration” value (left coronary artery) was 60 min, the ED50 (Beta-adrenoceptor [2]) was 1.01 mg/kg and the “ISA (increase in HR)” value (Beta-adrenoceptor [3]) was “+ (an increase in HR by 10 to 19 beats/min was observed)”.

With `COCCOC(=O)C1=C(C)NC(C)=C(C(=O)OCCCCCCNCC(O)COc2ccccc2)C1c1cccc([N+](=O)[O-])c1` (stereo not drawn) [Example 22, 6-(2-hydroxy-3-phenoxy-propylamino)hexyl 2-methoxyethyl-2,6-dimethyl-4-(m-nitrophenyl-3,5-dicarboxylate hydrochloride] the change in vivo at 0.3 mg/kg [1, 4] was 118%, the change in vivo at 0.3 mg/kg [1, 5] was -22% and the “ED100 pap (dose for 100% increase of Cor. BF; maximum response to papaverine 300 μg ia = 100%)” value (left coronary artery) was 128 μg ia. For the same compound, the “Duration” value (left coronary artery) was 60 min, the ED50 (Beta-adrenoceptor [2]) was 0.82 mg/kg and the “ISA (increase in HR)” value (Beta-adrenoceptor [3]) was “-”.

`COC(=O)C1=C(C)NC(C)=C(C(=O)OCCCCCCNCC(O)COc2ccccc2C#N)C1c1cccc([N+](=O)[O-])c1.Cl` (stereo not drawn) [Example 30, 6-[3-(o-cyanophenoxy)-2-hydroxypropylamino]hexyl methyl 2,6-dimethyl-4-(m-nitrophenyl)-1,4-di-hydropyridine-3,5-dicarboxylate hydrochloride] gave a change in vivo at 0.1 mg/kg [1, 4] of 12%, a change in vivo at 0.1 mg/kg [1, 5] of -21% and an ED50 (Beta-adrenoceptor [2]) of 0.79 mg/kg. For the same compound, the “ISA (increase in HR)” value (Beta-adrenoceptor [3]) was “-”.

`COC(=O)C1=C(C)NC(C)=C(C(=O)OCCCCCCNCC(O)COc2ccccc2Cl)C1c1cccc([N+](=O)[O-])c1` (stereo not drawn) [Example 32, 6-[3-(o-chlorophenoxy)-2-hydroxypropylamino]hexyl methyl 2,6-dimethyl-4-(m-nitrophenyl)-1,4-dihyrdopyridine-3,5-dicarboxylate hydrochloride] showed a change in vivo at 0.1 mg/kg [1, 4] of 35%, a change in vivo at 0.1 mg/kg [1, 5] of -18% and a change in vivo at 0.3 mg/kg [1, 4] of 93%. For the same compound, the change in vivo at 0.3 mg/kg [1, 5] was -36%, the ED50 (Beta-adrenoceptor [2]) was 1.18 mg/kg and the “ISA (increase in HR)” value (Beta-adrenoceptor [3]) was “-”.

With `COC(=O)C1=C(C)NC(C)=C(C(=O)OCCCCCCNCC(O)COc2ccccc2)C1c1ccccc1[N+](=O)[O-]` (stereo not drawn) [Example 41, 6-(2-hydroxy-3-phenoxypropylamino)hexyl methyl 2,6-dimethyl-4-(o-nitrophenyl)-1,4-dihydropyridine-3,5-dicarboxylate] the change in vivo at 0.3 mg/kg [1, 4] was 45%, the change in vivo at 0.3 mg/kg [1, 5] was -34% and the “ED100 pap (dose for 100% increase of Cor. BF; maximum response to papaverine 300 μg ia = 100%)” value (left coronary artery) was 43 μg ia. For the same compound, the “Duration” value (left coronary artery) was greater than 60 min, the ED50 (Beta-adrenoceptor [2]) was 0.58 mg/kg and the “ISA (increase in HR)” value (Beta-adrenoceptor [3]) was “+++ (an increase in HR by above 30 beats/min)”.

For `COC(=O)C1=C(C)NC(C)=C(C(=O)OCCCCCCNCC(O)COc2ccccc2)C1c1cccc(Cl)c1.Cl` (stereo not drawn) [Example 43, 6-(2-hydroxy-3-phenoxypropylamino)hexyl methyl 4-(m-chlorophenyl)-2,6-dimethyl-1,4-dihydro-pyridine-3,5-dicarboxylate hydrochloride], the change in vivo at 0.3 mg/kg [1, 4] was 44%, the change in vivo at 0.3 mg/kg [1, 5] was -22% and the “ED100 pap (dose for 100% increase of Cor. BF; maximum response to papaverine 300 μg ia = 100%)” value (left coronary artery) was 56 μg ia. For the same compound, the “Duration” value (left coronary artery) was greater than 60 min, the ED50 (Beta-adrenoceptor [2]) was 0.87 mg/kg and the “ISA (increase in HR)” value (Beta-adrenoceptor [3]) was “-”.

In the case of `COC(=O)C1=C(C)NC(C)=C(C(=O)OCCCCCCNCC(O)COc2ccccc2)C1c1cccc(OC)c1` (stereo not drawn) [Example 46, 6-(2-hydroxy-3-phenoxypropylamino)hexyl methyl 2,6-dimethyl-4-(m-methoxyphenyl)-1,4-dihyrdopyridine-3,5-dicarboxylate hydrochloride], the change in vivo at 0.3 mg/kg [1, 4] is reported as 36%, the change in vivo at 0.3 mg/kg [1, 5] is reported as -21% and the change in vivo at 1 mg/kg [1, 4] is reported as 78%. The change in vivo at 1 mg/kg [1, 5] was -45%, the “ED100 pap (dose for 100% increase of Cor. BF; maximum response to papaverine 300 μg ia = 100%)” value (left coronary artery) was 98 μg ia and the “Duration” value (left coronary artery) was greater than 60 min. For the same compound, the ED50 (Beta-adrenoceptor [2]) was 0.66 mg/kg and the “ISA (increase in HR)” value (Beta-adrenoceptor [3]) was “+ (an increase in HR by 10 to 19 beats/min was observed)”.

Work on `COC(=O)C1=C(C)NC(C)=C(C(=O)OCCCCCCNCC(O)COc2ccccc2)C1c1ccccc1OC.Cl` (stereo not drawn) [Example 47, 6-(2-hydroxy-3-phenoxypropylamino)hexyl methyl 2,6-dimethyl-4-(o-methoxyphenyl)-1,4-dihydropyridine-3,5-dicarboxylate hydrochloride] yielded a change in vivo at 0.3 mg/kg [1, 4] of 30%, a change in vivo at 0.3 mg/kg [1, 5] of -34% and a change in vivo at 1 mg/kg [1, 4] of 57%. For the same compound, the change in vivo at 1 mg/kg [1, 5] was -44%, the “ED100 pap (dose for 100% increase of Cor. BF; maximum response to papaverine 300 μg ia = 100%)” value (left coronary artery) was 245 μg ia and the “Duration” value (left coronary artery) was greater than 60 min. The ED50 (Beta-adrenoceptor [2]) was 0.11 mg/kg and the “ISA (increase in HR)” value (Beta-adrenoceptor [3]) was “+++ (an increase in HR by above 30 beats/min)”.

`COC(=O)C1=C(C)NC(C)=C(C(=O)OCCCCCCNCC(O)COc2ccccc2)C1c1cccc(C)c1.Cl` (stereo not drawn) [Example 48, 6-(2-hydroxy-3-phenoxypropylamino)hexyl methyl 2,6-dimethyl-4-(m-methylphenyl)-1,4-dihydro-pyridine-3,5-dicarboxylate hydrochloride] gave a change in vivo at 0.3 mg/kg [1, 4] of 71%, a change in vivo at 0.3 mg/kg [1, 5] of -20% and a change in vivo at 1 mg/kg [1, 4] of 92%. The change in vivo at 1 mg/kg [1, 5] was -43%, the “ED100 pap (dose for 100% increase of Cor. BF; maximum response to papaverine 300 μg ia = 100%)” value (left coronary artery) was 76 μg ia and the “Duration” value (left coronary artery) was 60 min. For the same compound, the ED50 (Beta-adrenoceptor [2]) was 0.68 mg/kg and the “ISA (increase in HR)” value (Beta-adrenoceptor [3]) was “-”.
